Laboratory results published in patent EP1561465A2, “Methods of use of fluoroquinolone compounds against bacteria” (LG Life Sciences, Ltd., priority 1999, dated 2001).
Values after ≈ are worked out from the molar mass of the structure shown.

Assays:
Type in all cases: cell-based
[1] = test system: S. aureus; test: MIC and MBC by microdilution in Mueller-Hinton broth, uropathogens; settings: Staphylococcus aureus
Protocol: (§1) MICs and MBCs were determined by a microdilution method with Mueller-Hinton broth. An inoculum of 1.3-9.4 x 10^5 colony forming units (CFU) per ml was used.
(§2) Strains included a reference strain E. coli ATCC 25922, susceptible to nalidixic acid (Nal-S) and the following clinical isolates obtained from complicated UTI patients: E. coli (resistant to nalidixic acid), K. pneumoniae, P. mirabilis , P. aeruginosa, […] (3 strains) and Enterococcus faecalis (2 strains).

[2] = test system: E. faecalis; test: as above; settings: Enterococcus faecalis
Protocol: as §1, §2

[3] = test system: enteropathogenic bacterial strains; test: MIC by agar dilution (NCCLS M7-A4), enteropathogenic isolates pooled; settings: all enteropathogenic isolates except C. jejuni
[4] = test system: anaerobic cocci and Gram positive pathogens; test: organism not typed; settings: read-out: MIC90s
[5] = test system: K. pneumoniae; test: Urinary bactericidal titers (UBT) and AUBTC of volunteers' urine; settings: K. pneumoniae (16) Laboratory No. 595; urine after gemifloxacin 320 mg or ofloxacin 400 mg
[6] = S. aureus Laboratory No. 83, inoculum 7.1 CFU 10^5/ml
[7] = S. aureus Laboratory No. 161, inoculum 9.4 CFU 10^5/ml
[8] = S. aureus Laboratory No. 636, inoculum 5.6 CFU 10^5/ml
[9] = S. aureus isolate (2/32), quinolone-resistant
[10] = E. faecalis Laboratory No. 55, inoculum 6.0 CFU 10^5/ml
[11] = E. faecalis Laboratory No. 60, inoculum 7.0 CFU 10^5/ml

Row | SMILES | MBC [1, 6] [µg/mL] | MIC [1, 6] [µg/mL] | MBC [1, 7] [µg/mL] | MIC [1, 7] [µg/mL] | MBC [1, 8] [µg/mL] | MIC [1, 8] [µg/mL] | MIC ([1]; S. aureus isolate (0.008/0.25)) [µg/mL] | MIC ([1]; S. aureus isolate (0.25/4)) [µg/mL] | MIC [1, 9] [µg/mL] | MBC [2, 10] [µg/mL] | MIC [2, 10] [µg/mL] | MBC [2, 11] [µg/mL] | MIC [2, 11] [µg/mL] | MIC ([2]; E. faecalis isolate (0.06/2)) [µg/mL] | MIC ([2]; E. faecalis isolate (0.5/32)) [µg/mL] | concentration inhibiting 100% of isolates [3] [mg/L] | MIC [4] [µg/mL] | AUBTC (range) [5]
1 | CO/N=C1\CN(c2nc3c(cc2F)c(=O)c(C(=O)O)cn3C2CC2)CC1CN (racemic) [Gemifloxacin, (R,S)-7-(3-aminomethyl-4-methoxyiminopyrrolidin-1-yl)-1-cyclopropyl-6-fluoro-4-oxo-1,4-dihydro-1,8-naphthyridine-3-carboxylic acid] | 0.008 (≈ 0.0205 µM) | 0.008 (≈ 0.0205 µM) | 0.25 (≈ 0.642 µM) | 0.25 (≈ 0.642 µM) | 2 (≈ 5.14 µM) | 2 (≈ 5.14 µM) | 0.008 (≈ 0.0205 µM) | 0.25 (≈ 0.642 µM) | 2 (≈ 5.14 µM) | 2 (≈ 5.14 µM) | 0.5 (≈ 1.28 µM) | 0.06 (≈ 0.154 µM) | 0.06 (≈ 0.154 µM) | 0.06 (≈ 0.154 µM) | 0.5 (≈ 1.28 µM) | 0.25 | 0.125 to 2 (≈ 0.321 to 5.14 µM) | 321 (72-564)
2 | CC1COc2c(N3CCN(C)CC3)c(F)cc3c(=O)c(C(=O)O)cn1c23 (stereo not shown) [Ofloxacin, ofloxacin] | 0.25 (≈ 0.692 µM) | 0.25 (≈ 0.692 µM) | 4 (≈ 11.1 µM) | 4 (≈ 11.1 µM) | 32 (≈ 88.6 µM) | 32 (≈ 88.6 µM) | 0.25 (≈ 0.692 µM) | 4 (≈ 11.1 µM) | 32 (≈ 88.6 µM) | 128 (≈ 354 µM) | 32 (≈ 88.6 µM) | 2 (≈ 5.53 µM) | 2 (≈ 5.53 µM) | 2 (≈ 5.53 µM) | 32 (≈ 88.6 µM) | – | – | 414 (180-636)
